ChEMBL document CHEMBL4837269, “Identification of 6-Hydroxypyrimidin-4(1H)-one-3-carboxamides as Potent and Orally Active APJ Receptor Agonists” (ACS Med Chem Lett, 2021)

Legend:
Apelin receptor [1] = molecular target: T1, Apelin receptor (Rattus norvegicus, UniProt Q9JHG3); assay: Agonist activity at rat APJ receptor expressed in HEK293T cells assessed as compound stimulated inhibition of forskolin stimulated cAMP production incubated for 30 mins by HTRF assay; type: functional, cell-based
T1 sequence (Q9JHG3 whole entry): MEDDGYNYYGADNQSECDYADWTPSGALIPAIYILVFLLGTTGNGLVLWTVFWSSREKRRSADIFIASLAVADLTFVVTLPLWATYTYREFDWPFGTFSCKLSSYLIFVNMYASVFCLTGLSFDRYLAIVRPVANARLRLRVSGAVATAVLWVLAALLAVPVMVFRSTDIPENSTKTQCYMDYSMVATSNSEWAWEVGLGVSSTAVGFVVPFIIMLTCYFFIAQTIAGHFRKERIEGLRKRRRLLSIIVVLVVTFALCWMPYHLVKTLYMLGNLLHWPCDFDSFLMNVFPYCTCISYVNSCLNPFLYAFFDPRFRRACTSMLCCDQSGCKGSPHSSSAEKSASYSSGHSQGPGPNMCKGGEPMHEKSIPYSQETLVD

Apelin receptor [2] = molecular target: T2, Apelin receptor (Homo sapiens, UniProt P35414); assay: Agonist activity at human APJ receptor expressed in HEK293T cells assessed as compound stimulated inhibition of forskolin stimulated cAMP production incubated for 30 mins by HTRF assay; type: functional, cell-based
T2 sequence (P35414 whole entry): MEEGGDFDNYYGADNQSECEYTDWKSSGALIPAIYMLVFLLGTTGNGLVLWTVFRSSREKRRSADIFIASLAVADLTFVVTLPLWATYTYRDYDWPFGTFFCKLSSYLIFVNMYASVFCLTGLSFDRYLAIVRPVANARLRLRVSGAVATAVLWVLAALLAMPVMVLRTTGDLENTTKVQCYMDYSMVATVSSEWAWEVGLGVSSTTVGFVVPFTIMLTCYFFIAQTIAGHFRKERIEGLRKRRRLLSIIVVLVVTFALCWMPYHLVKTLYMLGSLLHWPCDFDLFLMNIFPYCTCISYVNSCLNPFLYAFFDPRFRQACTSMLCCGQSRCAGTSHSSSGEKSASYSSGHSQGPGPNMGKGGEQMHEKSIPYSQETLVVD

[3] = Permeability of the compound at pH 7.4 by PAMPA assay; type: ADME; conditions: for Papp: read-out: permeability
[4] = Metabolic stability in rat liver microsomes assessed as parent compound remaining measured after 10 mins in presence of NADPH; type: ADME, Microsome; conditions: for remaining at 10 min: liver microsomes, read-out: Stabilty; for Stabilty: microsomes, 10 min
[5] = Metabolic stability in human liver microsomes assessed as parent compound remaining measured after 10 mins in presence of NADPH; type: ADME, Microsome; conditions: for remaining at 10 min: liver microsomes, read-out: Stabilty; for percent parent compound remaining: microsomes, 10 min
[6] = Permeability of the compound at pH 5.5 by PAMPA assay; type: ADME; conditions: for Papp: read-out: permeability
[7] = Cmax in Sprague-Dawley rat at 1 mg/kg, po via gavage measured after 48 hrs by LC/MS/MS analysis; type: ADME, organism-based; parameters: route oral, time 48 hrs, dose 1 mg/kg; conditions: in vivo
Rattus norvegicus [8] = assay: Hemodynamic activity in isoflurane-anesthetized Sprague-Dawley rat model of acute pressure-volume loop assessed as change in dp/dT at 10 microg/kg/min administered as iv infusion for 15 mins (reference value: 3.3 +/- […]); type: functional; conditions: dose 10 µg/kg/min, 0.25 h
[9] = Free drug concentration in Sprague-Dawley rat plasma; type: ADME, cell-free
Rattus norvegicus [10] = assay: Hemodynamic activity in isoflurane-anesthetized Sprague-Dawley rat model of acute pressure-volume loop assessed as change in stroke volume at 10 microg/kg/min administered as iv infusion for 15 mins (reference value: -0.6 %); type: functional; conditions: dose 10 µg/kg/min, 0.25 h
Rattus norvegicus [11] = assay: Hemodynamic activity in isoflurane-anesthetized Sprague-Dawley rat model of acute pressure-volume loop assessed as change in heart rate at 10 microg/kg/min administered as iv infusion for 15 mins (reference value: 3 +/- 1.6 %); type: functional; conditions: dose 10 µg/kg/min, 0.25 h
[12] = Half life in Sprague-Dawley rat at 1 mg/kg, po via gavage measured after 48 hrs by LC/MS/MS analysis; type: ADME, organism-based; conditions: in vivo
[13] = Protein binding in Sprague-Dawley rat plasma; type: ADME, cell-free; conditions: read-out: PPB (converted)
[14] = AUC(0 to 24 hrs) in Sprague-Dawley rat at 1 mg/kg, po via gavage measured after 48 hrs by LC/MS/MS analysis; type: ADME, organism-based; parameters: route oral, dose 1 mg/kg, time 48 hrs; conditions: in vivo
Rattus norvegicus [15] = assay: Hemodynamic activity in isoflurane-anesthetized Sprague-Dawley rat model of acute pressure-volume loop assessed as change in cardiac output at 10 microg/kg/min administered as iv infusion for 15 mins (reference value: 2.3 +/- 2.1 %); type: functional; conditions: dose 10 µg/kg/min, 0.25 h
Rattus norvegicus [16] = assay: Hemodynamic activity in isoflurane-anesthetized Sprague-Dawley rat model of acute pressure-volume loop assessed as change in blood pressure at 10 microg/kg/min administered as iv infusion for 15 mins (reference value: -0.2 %); type: functional; conditions: dose 10 µg/kg/min, 0.25 h

SMILES	EC50 (Apelin receptor [1]) [nM]	EC50 (Apelin receptor [2]) [nM]	Papp [3] [×10⁻⁶ cm/s]	remaining at 10 min [4] [%]	remaining at 10 min [5] [%]	Papp [6] [×10⁻⁶ cm/s]	other results
CCCCc1[nH]c(=O)c(C(=O)N(CCC)Cc2ccccc2)c(O)c1-c1c(OC)cccc1OC	150	120					
CCCCc1[nH]c(=O)c(C(=O)NCc2ccccc2)c(O)c1-c1c(OC)cccc1OC	4800	1100					
CCCCc1[nH]c(=O)c(C(=O)N(C)C)c(O)c1-c1c(OC)cccc1OC	1200	1100					
CCCCc1[nH]c(=O)c(C(=O)N(C)CCc2ccc(Cl)cc2)c(O)c1-c1c(OC)cccc1OC	10	9.3					
CCOCc1[nH]c(=O)c(-c2nnc(Cc3ccc(C)cn3)o2)c(O)c1-c1c(OC)cccc1OC	0.024	0.023					
CCCCc1[nH]c(=O)c(C(=O)NCC)c(O)c1-c1c(OC)cccc1OC	> 30000	> 30000					
CCCCc1[nH]c(=O)c(C(=O)N2CC[C@@H](c3ccccc3)C2)c(O)c1-c1c(OC)cccc1OC	3.1	1.8	7.3	69	100	63	
CCCCc1nc(=O)c(C(=O)N2CCC(c3ccncc3)C2)c(O)n1-c1c(OC)cccc1OC (stereo in doubt; 13a)	2.1	1.5	0.3	83	93		permeability [6]: 0.9 ×10⁻⁶ cm/s
CCCCc1nc(=O)c(C(=O)N2CCC(c3ccncc3)C2)c(O)n1-c1c(OC)cccc1OC (stereo in doubt; 13b)	4	2.7					permeability [3]: 0.5 ×10⁻⁶ cm/s; Stabilty [4]: 80%; percent parent compound remaining [5]: 90%; permeability [6]: 1.9 ×10⁻⁶ cm/s

More lines, in order of falling EC50 (Apelin receptor [1]), values ahead:

EC50 (Apelin receptor [1]) [nM]	EC50 (Apelin receptor [2]) [nM]	Papp [3] [×10⁻⁶ cm/s]	remaining at 10 min [4] [%]	remaining at 10 min [5] [%]	Papp [6] [×10⁻⁶ cm/s]	SMILES	other results
1.8	1	1.8	73	99	84	CCCCc1[nH]c(=O)c(C(=O)N2CC[C@H](c3ccccc3)C2)c(O)c1-c1c(OC)cccc1OC	
0.61	0.44	0.3			6.4	CCOCc1nc(=O)c(C(=O)N2CC[C@H](c3ccccc3)C2)c(O)n1-c1c(OC)cccc1OC	
0.4	0.3	0.1				CCCCc1nc(=O)c(C(=O)N2CCC(c3cccnc3)C2)c(O)n1-c1c(OC)cccc1OC (stereo in doubt; 12b)	Stabilty [4]: 70%; percent parent compound remaining [5]: 89%; permeability [6]: 2.1 ×10⁻⁶ cm/s
0.37	0.17		68	82	4.2	CCCCc1nc(=O)c(C(=O)N2CCC(c3ccccn3)C2)c(O)n1-c1c(OC)cccc1OC (stereo in doubt; 11a)	
0.34		2.3	26	97	32.5	CCCCc1nc(=O)c(C(=O)N2CC[C@@H](c3ccccc3)C2)c(O)n1-c1c(OC)cccc1OC	
0.33	0.29		65	82	2.3	CCCCc1nc(=O)c(C(=O)N2CCC(c3cccnc3)C2)c(O)n1-c1c(OC)cccc1OC (stereo in doubt; 12a)	
0.31	0.24					CCCCc1nc(=O)c(C(=O)N2CCC(c3ccc(Cl)cc3)C2)c(O)n1-c1c(OC)cccc1OC (stereo in doubt; 10b)	permeability [3]: 6.3 ×10⁻⁶ cm/s; Stabilty [4]: 8%; percent parent compound remaining [5]: 90%; permeability [6]: 38 ×10⁻⁶ cm/s
0.27		1.2	25	85	52.3	CCCCc1nc(=O)c(C(=O)N2CC[C@H](c3ccccc3)C2)c(O)n1-c1c(OC)cccc1OC	
0.17	0.15	7.4	7	97	30	CCCCc1nc(=O)c(C(=O)N2CCC(c3ccc(Cl)cc3)C2)c(O)n1-c1c(OC)cccc1OC (stereo in doubt; 10a)	
0.15	0.12	0.6				CCCCc1nc(=O)c(C(=O)N2CCC(c3ccccn3)C2)c(O)n1-c1c(OC)cccc1OC (stereo in doubt; 11b)	Stabilty [4]: 62%; permeability [6]: 7.8 ×10⁻⁶ cm/s
0.063	0.032		35	100		CCCCc1nc(=O)c(C(=O)N2CC[C@H](c3ccc(Cl)cn3)C2)c(O)n1-c1c(OC)cccc1OC	
0.035	0.027		43	100		CCCCc1nc(=O)c(C(=O)N2CC[C@@H](c3ccc(Cl)cn3)C2)c(O)n1-c1c(OC)cccc1OC	Cmax [7]: 3.2 µM; Activity (Rattus norvegicus [8]): 9.1%; Cp(f) [9]: 0.0064 µM; Activity (Rattus norvegicus [10]): 67%; Activity (Rattus norvegicus [11]): 4.6%; half-life [12]: 3.2 h; fraction unbound [13]: 0.022; AUC(0-t) at 48 h [14]: 1.9 µM·h; Activity (Rattus norvegicus [15]): 11.7%; Activity (Rattus norvegicus [16]): -2.8%
